Test results published in PMC6753678, “Fueling Open Innovation for Malaria Transmission-Blocking Drugs: Hundreds of Molecules Targeting Early Parasite Mosquito Stages” (Frontiers in Microbiology, 2019).
Where two headings read alike, the source gives them in different places.

Assays:
[1] = tested on: HepG2 cells; experiment: HepG2 cytotoxicity assay; details: for Unified cytotox: HepG2 values of the three screens unified; for IC50: read-out: HepG2 cytotoxicity assay IC50, dose response confirmation
How it was run: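 Cells at 2,500 per well in MEM with 10% fetal bovine serum and 1% NEAA were exposed to test compounds for 48 h at 37°C, 5% CO2. Viability was read by fluorescence, with percent inhibition calculated against 50 μM doxorubicin (positive) and DMSO (negative) controls.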

[2] = tested on: P. falciparum female gametocytes; experiment: P. falciparum female gametogenesis assay (Pf FGAA); details: 1: YES; 0: NO
[3] = tested on: P. berghei ookinete development; details: for Is compound selective in assay? Pb ODA active?: 1: YES, 0: NO; for % inhibition, Replicate A / % inhibition, Replicate B: primary screen at 1 μM
[4] = tested on: 3D7-strain P. falciparum asexual parasites; experiment: P. falciparum asexual growth inhibition assay (Pf GIA); assay type: cell-based, Plasmodium falciparum; details: dose response confirmation; read-out: Pf asexual growth inhibition assays IC50
How it was run: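 Read-out was lactate dehydrogenase activity measured by absorbance at 650 nm after freezing and thawing, against 50 μM chloroquine and DMSO controls. Before that, asexual 3D7 cultures (0.25% parasitemia, 2% hematocrit) had 72 h dose-response compound exposure at 37°C in 5% CO2/5% O2/90% N2; three independent replicates averaged.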

[5] = tested on: HepG2 cells; details: HepG2; ref Miguel-Blanco et al 2017; cited from earlier work
[6] = tested on: P. falciparum female gametocytes; set-up: method as in Miguel-Blanco et al 2017; details: ref Miguel-Blanco et al 2017; read-out: Pf FGAA IC50; cited from earlier work
[7] = read-out: Pb ODA IC50, this manuscript
[8] = read-out: Pb Ookinete development assay IC50, dose response confirmation

SMILES	HepG2 cytoxicity (Pb ODA, this manuscript) [1]	Unified cytotox [1]	IC50 [1]	Is compound selective in assay? Pf FGAA active? [2]	Is compound selective in assay? Pb ODA active? [3]	% inhibition, Replicate A [3]	% inhibition, Replicate B [3]	IC50 [3, 7]	IC50 [3, 8]	IC50 [4]	HepG2 cytoxicity (Pf FGAA screen) [5]	IC50 [6]
Cc1cc(Nc2ncc(C#N)c(Nc3ccccc3C(N)=O)n2)ccc1N1CCN(C)CC1.Cl [TCMDC-134115]	3.98 µM	2.19 µM	3.98 µM	0 (0: NO)	1 (1: YES)	100.09%	101.70%	0.0214 µM	0.021 µM	0.007 µM	0.40 µM	1.67 µM
Cc1cccc(Nc2nc(N[C@@H]3CCCNC3)nc3cc[nH]c(=O)c23)c1.O=C(O)C(F)(F)F [TCMDC-134835]	4.57 µM	3.91 µM	4.57 µM	0 (0: NO)	0 (0: NO)	88.28%	77.31%	0.89 µM	0.889 µM	0.255 µM	3.25 µM	1.85 µM
Nc1nc(N)c2c(ccc3c2ccn3Cc2cccc(F)c2)n1 [TCMDC-137810]	0.17 µM	0.11 µM	0.17 µM	0 (0: NO)	0 (0: NO)	49.99%	58.69%	0.36 µM	0.359 µM	< 0.0002 µM	0.06 µM	1.42 µM
N#Cc1ccc(Cn2ccc3c4c(N)nc(N)nc4ccc32)cc1 [TCMDC-137820]	0.0017 µM	0.0017 µM	0.0017 µM	0 (0: NO)	0 (0: NO)	57.43%	49.47%	1.54 µM	1.54 µM	0.022 µM	<0.0017 µM	1.06 µM
Cc1ccc(S(=O)(=O)N(CCCNCc2cccc(O)c2)c2ccccc2)cc1 [TCMDC-138022]	34.67 µM	39.67 µM	34.7 µM	1 (1: YES)	1 (1: YES)	53.17%	87.34%	1.48 µM	1.48 µM	0.124 µM	44.67 µM	1.14 µM
CC(C)(C)CNCC(C)(C)c1nc(-c2ccc(Cl)c(O)c2)c(-c2ccncc2)[nH]1.Cl [TCMDC-140549]	12.02 µM	11.83 µM	12 µM	1 (1: YES)	0 (0: NO)	58.06%	49.80%	1.35 µM	1.35 µM	0.817 µM	11.63 µM	1.01 µM
CC(C)(CN)c1nc(-c2ccc(Br)c(O)c2)c(-c2ccncc2)[nH]1.Cl [TCMDC-140680]	47.32 µM	46.57 µM	47.3 µM	1 (1: YES)	1 (1: YES)	97.33%	90.28%	1.93 µM	1.93 µM	1.55 µM	45.82 µM	0.84 µM
CC(C)(CNC(=O)[C@H]1CCCCN1)c1nc(-c2ccc(Cl)c(O)c2)c(-c2ccncc2)[nH]1.Cl [TCMDC-141070]	61.66 µM	45.31 µM	61.7 µM	1 (1: YES)	1 (1: YES)	24.32%	51.52%	–	2.57 µM	0.818 µM	28.96 µM	0.53 µM
Cl.NCC1(c2nc(-c3ccc(Cl)c(O)c3)c(-c3ccncc3)[nH]2)CCCCC1 [TCMDC-141154]	46.77 µM	29.34 µM	46.8 µM	1 (1: YES)	1 (1: YES)	57.75%	53.53%	1.01 µM	1 µM	1.48 µM	11.90 µM	0.21 µM
CC(C)(CN)c1cc(-c2ccc(Cl)c(O)c2)c(-c2ccncc2)o1.Cl [TCMDC-141334]	20.65 µM	15.32 µM	20.7 µM	1 (1: YES)	1 (1: YES)	59.21%	49.94%	1.39 µM	1.39 µM	1.62 µM	9.98 µM	0.42 µM
